According to BindingDB's records for doi:10.1021/jm00054a014 (Monsanto Corporate Research, 1993):
pIC50: −log10 of the molar value.

Target: T1, Dimer of Gag-Pol polyprotein [489-587] (Human immunodeficiency virus 1, UniProt P12497)
T1 construct: 489-587
Test: Protease Inhibition Assay
Conditions: pH 6.4; 25 °C
Procedure: IC50 values for inhibition of recombinant HIV protease were determined using the spectrofluorometric assay, which utilized an intramolecularly quenched fluorogenic substrate, 2-(aminobenzoyl)-Thr-Ile-Nle-Phe(p-NO2)-Gln-ArgNH2. Cleavage of the substrate by HIV protease released the fluorescent N-terminal tripeptide from its close apposition to the quenching nitrobenzyl group, resulting in enhanced fluorescence.

Structure (SMILES) | pIC50
CCCCNC(=O)N(C)C[C@@H](O)[C@H](Cc1ccccc1)NC(=O)[C@H](CC(N)=O)NC(=O)OCc1ccccc1 [benzyl N-[(1S)-1-{[(2S,3R)-4-[(butylcarbamoyl)(methyl)amino]-3-hydroxy-1-phenylbutan-2-yl]carbamoyl}-2-carbamoylethyl]carbamate] | < 5.00
CCCCNC(=O)N(CC(C)C)C[C@H](O)[C@H](Cc1ccccc1)NC(=O)[C@H](CC(N)=O)NC(=O)OCc1ccccc1 [benzyl N-[(1S)-1-{[(2S,3S)-4-[(butylcarbamoyl)(2-methylpropyl)amino]-3-hydroxy-1-phenylbutan-2-yl]carbamoyl}-2-carbamoylethyl]carbamate] | < 5.00
CCCCNC(=O)N(C)C[C@H](O)[C@H](Cc1ccccc1)NC(=O)[C@H](CC(N)=O)NC(=O)OCc1ccccc1 [benzyl N-[(1S)-1-{[(2S,3S)-4-[(butylcarbamoyl)(methyl)amino]-3-hydroxy-1-phenylbutan-2-yl]carbamoyl}-2-carbamoylethyl]carbamate] | < 5.00
CNC(=O)N(C)C[C@@H](O)[C@H](Cc1ccccc1)NC(=O)[C@H](CC(N)=O)NC(=O)OCc1ccccc1 [benzyl N-[(1S)-2-carbamoyl-1-{[(2S,3R)-3-hydroxy-4-[methyl(methylcarbamoyl)amino]-1-phenylbutan-2-yl]carbamoyl}ethyl]carbamate] | < 5.00
CNC(=O)N(CC(C)C)C[C@H](O)[C@H](Cc1ccccc1)NC(=O)[C@H](CC(N)=O)NC(=O)OCc1ccccc1 [benzyl N-[(1S)-2-carbamoyl-1-{[(2S,3S)-3-hydroxy-4-[(methylcarbamoyl)(2-methylpropyl)amino]-1-phenylbutan-2-yl]carbamoyl}ethyl]carbamate] | < 5.00
CNC(=O)N(C)C[C@H](O)[C@H](Cc1ccccc1)NC(=O)[C@H](CC(N)=O)NC(=O)OCc1ccccc1 [benzyl N-[(1S)-2-carbamoyl-1-{[(2S,3S)-3-hydroxy-4-[methyl(methylcarbamoyl)amino]-1-phenylbutan-2-yl]carbamoyl}ethyl]carbamate] | < 5.00
